{"source": "patent US12310365B2", "about": "(priority 2009, dated 2025)", "format_in_all_cases": "in vivo", "key": {"[1]": {"test_system": "Pyricularia oryzae", "assay": "whole plant or invertebrate", "conditions": "topical, 168 h, read-out: Control value"}, "[2]": {"test_system": "Botrytis cinerea (Diethofencarb-resistant strain)", "assay": "Tomato gray mold preventive test (Diethofencarb-resistant strain)"}, "[3]": {"test_system": "Sphaerotheca fuliginea", "assay": "Cucumber powdery mildew preventive test", "conditions": "Podosphaera fuliginea, topical, 168 h; for pest or weed control at 10 ppm: treatment concentration 10 ppm"}, "[4]": {"test_system": "Sphaerotheca fuliginea", "assay": "Cucumber powdery mildew curative test", "conditions": "Podosphaera fuliginea, topical, 168 h; for pest or weed control at 10 ppm: treatment concentration 10 ppm"}, "[5]": {"test_system": "Phytophthora infestans", "assay": "whole plant or invertebrate", "conditions": "in Solanum lycopersicum, topical, 168 h, read-out: Control value"}, "[6]": {"test_system": "Phytophthora infestans", "assay": "whole plant or invertebrate", "conditions": "in Solanum lycopersicum, topical, 168 h, read-out: Control value", "remark": "listed apart in the source"}, "[7]": {"test_system": "Pseudoperonospora cubensis", "assay": "Cucumber downy mildew preventive test"}, "[8]": {"test_system": "Pseudoperonospora cubensis", "assay": "Cucumber downy mildew curative test", "conditions": "single ingredient"}, "[9]": {"conditions": "Botrytis cinerea, topical, 48 h, read-out: Control value"}, "[10]": {"conditions": "Pseudoperonospora cubensis, topical, 168 h, treatment concentration 10 ppm"}, "[11]": {"conditions": "Pseudoperonospora cubensis, topical, 168 h, treatment concentration 20 ppm"}, "[12]": {"conditions": "Pseudoperonospora cubensis, topical, 168 h, treatment concentration 160 ppm"}, "[13]": {"conditions": "treatment concentration 7.5 ppm"}, "[14]": {"conditions": "Pseudoperonospora cubensis, topical, 168 h, treatment concentration 40 ppm"}, "[15]": {"conditions": "treatment concentration 55.3 ppm"}}, "note": "Where a name gives a salt, the structure may show the parent alone. Read-outs that look alike come from different tables or passages of the source.", "data": [{"compound": "CC(C)OC(=O)N[C@H](CNC(=O)c1cc2ccccc2o1)C(C)C", "note": "[Compound 2003, Isopropyl ((1S)-1-{[(1-benzofuran-2-ylcarbonyl)amino]methyl}-2-methyl-propyl)carbamate]", "values": [{"measurement": "pest or weed control at 5 ppm", "setting": "[1]", "value": 50, "unit": "%"}]}, {"compound": "CC1(C)N=C(c2cnc3ccccc3c2)c2cccc(F)c2C1(C)C", "note": "[Compound A, 3-(5-fluoro-3,3,4,4-tetramethyl-3,4-dihydroisoquinolin-1-yl)quinoline]", "values": [{"measurement": "pest or weed control at 10 ppm", "setting": "[2]; [9]", "value": 83, "unit": "%"}, {"measurement": "pest or weed control at 10 ppm", "setting": "[3]", "value": 50, "unit": "%"}, {"measurement": "pest or weed control at 10 ppm", "setting": "[4]", "value": 67, "unit": "%"}, {"measurement": "pest or weed control at 10 ppm", "setting": "[5]", "value": 0, "unit": "%"}, {"measurement": "pest or weed control at 10 ppm", "setting": "[6]", "value": 0, "unit": "%"}, {"measurement": "pest or weed control at 10 ppm", "setting": "[7]; [10]", "value": 20, "unit": "%"}, {"measurement": "pest or weed control at 10 ppm", "setting": "[8]; [10]", "value": 17, "unit": "%"}]}, {"compound": "CO/C=C(/C(=O)OC)c1ccccc1Oc1cc(Oc2ccccc2C#N)ncn1", "note": "[Azoxystrobin]", "values": [{"measurement": "Control value", "setting": "[7]; treatment concentration 8 ppm", "value": 60}, {"measurement": "Control value", "setting": "[8]; treatment concentration 8 ppm", "value": 92}]}, {"compound": "CCCOC/C(=N\\c1ccc(Cl)cc1C(F)(F)F)n1ccnc1", "note": "[Triflumizole]", "values": [{"measurement": "pest or weed control at 6 ppm", "setting": "[3]; treatment concentration 6 ppm", "value": 33, "unit": "%"}, {"measurement": "pest or weed control at 6 ppm", "setting": "[4]; treatment concentration 6 ppm", "value": 67, "unit": "%"}]}, {"compound": "O=C1C2CC=CCC2C(=O)N1SC(Cl)(Cl)Cl", "note": "(centres unmarked) [Captan]", "values": [{"measurement": "pest or weed control at 133.3 ppm", "setting": "[2]; [9]", "value": 33, "unit": "%"}]}, {"compound": "Cc1ccc(C(=O)NC[C@H](C)NC(=O)OCC(F)(F)F)cc1", "note": "[Compound 2007, 2,2,2-Trifluoroethyl {(1S)-1-methyl-2-[(4-methylbenzoyl)amino]ethyl}-carbamate]", "values": [{"measurement": "pest or weed control at 5 ppm", "setting": "[1]", "value": 67, "unit": "%"}]}, {"compound": "CCNC(=O)NC(=O)/C(C#N)=N/OC", "note": "[Cymoxanil]", "values": [{"measurement": "pest or weed control at 20 ppm", "setting": "[7]; [11]", "value": 60, "unit": "%"}, {"measurement": "pest or weed control at 20 ppm", "setting": "[8]; [11]", "value": 67, "unit": "%"}]}, {"compound": "COC(=O)NC(=S)Nc1ccccc1NC(=S)NC(=O)OC", "note": "[Thiophanate-methyl]", "values": [{"measurement": "pest or weed control at 70 ppm", "setting": "[2]; [9]", "value": 43, "unit": "%"}]}, {"compound": "Cc1ccc(C(=O)NC[C@@H](NC(=O)OCc2ccccc2)C(C)C)cc1", "note": "[Compound 2008, Benzyl ((1S)-2-methyl-1-{[(4-methylbenzoyl)amino]methyl}propyl)carbamate]", "values": [{"measurement": "pest or weed control at 5 ppm", "setting": "[1]", "value": 33, "unit": "%"}]}, {"compound": "CCOc1ccc(NC(=O)OC(C)C)cc1OCC", "note": "[Diethofencarb]", "values": [{"measurement": "pest or weed control at 12.5 ppm", "setting": "[2]; [9]", "value": 0, "unit": "%"}]}, {"compound": "CCCOC(=O)NCCCN(C)C", "note": "[Propamocarb hydrochloride]", "values": [{"measurement": "pest or weed control at 160 ppm", "setting": "[5]", "value": 0, "unit": "%"}, {"measurement": "pest or weed control at 160 ppm", "setting": "[6]", "value": 0, "unit": "%"}, {"measurement": "pest or weed control at 160 ppm", "setting": "[7]; [12]", "value": 20, "unit": "%"}, {"measurement": "pest or weed control at 160 ppm", "setting": "[8]; [12]", "value": 0, "unit": "%"}]}, {"compound": "C[C@@]1(c2ccc(Oc3ccccc3)cc2)OC(=O)N(Nc2ccccc2)C1=O", "note": "(racemic) [Famoxadone]", "values": [{"measurement": "pest or weed control at 10 ppm", "setting": "[7]; [10]", "value": 0, "unit": "%"}, {"measurement": "pest or weed control at 10 ppm", "setting": "[8]; [10]", "value": 92, "unit": "%"}]}, {"compound": "Iminoctadine trialbesilate", "values": [{"measurement": "Control value", "setting": "[2]; treatment concentration 40 ppm", "value": 67}]}, {"compound": "Mancozeb", "values": [{"measurement": "Control value", "setting": "[7]; [13]", "value": 60}, {"measurement": "Control value", "setting": "[8]; [13]", "value": 67}]}, {"compound": "O=[N+]([O-])c1cc(C(F)(F)F)c(Cl)c([N+](=O)[O-])c1Nc1ncc(C(F)(F)F)cc1Cl", "note": "[Fluazinam]", "values": [{"measurement": "pest or weed control at 20 ppm", "setting": "[2]; [9]", "value": 0, "unit": "%"}]}, {"compound": "N#Cc1c(Cl)c(Cl)c(Cl)c(C#N)c1Cl", "note": "[TPN, Chlorothalonil (TPN)]", "values": [{"measurement": "pest or weed control at 40 ppm", "setting": "[5]", "value": 0, "unit": "%"}, {"measurement": "pest or weed control at 40 ppm", "setting": "[6]", "value": 0, "unit": "%"}, {"measurement": "pest or weed control at 40 ppm", "setting": "[7]; [14]", "value": 60, "unit": "%"}, {"measurement": "pest or weed control at 40 ppm", "setting": "[8]; [14]", "value": 83, "unit": "%"}]}, {"compound": "CC1(C)N=C(c2cnc3ccccc3c2)c2cccc(F)c2C1(F)F", "note": "[C, 3-(4,4,5-trifluoro-3,3-dimethyl-3,4-dihydroisoquinolin-1-yl)quinoline]", "values": [{"measurement": "pest or weed control at 10 ppm", "setting": "[2]; [9]", "value": 80, "unit": "%"}, {"measurement": "pest or weed control at 10 ppm", "setting": "[3]", "value": 65, "unit": "%"}, {"measurement": "pest or weed control at 10 ppm", "setting": "[4]", "value": 73, "unit": "%"}, {"measurement": "pest or weed control at 10 ppm", "setting": "[5]", "value": 0, "unit": "%"}, {"measurement": "pest or weed control at 10 ppm", "setting": "[6]", "value": 0, "unit": "%"}, {"measurement": "pest or weed control at 10 ppm", "setting": "[7]; [10]", "value": 33, "unit": "%"}, {"measurement": "pest or weed control at 10 ppm", "setting": "[8]; [10]", "value": 33, "unit": "%"}]}, {"compound": "CCNc1nc(CC)c(C(=O)NC(C#N)c2cccs2)s1", "note": "(centres unmarked) [Ethaboxam]", "values": [{"measurement": "Control value", "setting": "[7]; treatment concentration 10 ppm", "value": 20}, {"measurement": "Control value", "setting": "[8]; treatment concentration 10 ppm", "value": 67}]}, {"compound": "CC12CC1(C)C(=O)N(c1cc(Cl)cc(Cl)c1)C2=O", "note": "(centres unmarked) [Procymidone]", "values": [{"measurement": "pest or weed control at 50 ppm", "setting": "[2]; [9]", "value": 17, "unit": "%"}]}, {"compound": "CC1(C)COC(C)(CCCc2ccc(Cl)cc2)N1C(=O)n1ccnc1.CC1(C)COC(C)(CCCc2ccc(Cl)cc2)N1C(=O)n1ccnc1.O=C(O)/C=C/C(=O)O", "note": "(centres unmarked) [Oxpoconazole fumarate]", "values": [{"measurement": "Control value", "setting": "[2]; treatment concentration 10 ppm", "value": 0}]}, {"compound": "CC1(C(=O)Nc2ccc(O)c(Cl)c2Cl)CCCCC1", "note": "[Fenhexamid]", "values": [{"measurement": "pest or weed control at 50 ppm", "setting": "[2]; [9]", "value": 50, "unit": "%"}]}, {"compound": "[Cu+2].[OH-].[OH-]", "note": "[cupric hydroxide]", "values": [{"measurement": "Control value", "setting": "[7]; [15]", "value": 40}, {"measurement": "Control value", "setting": "[8]; [15]", "value": 50}]}, {"compound": "CC#Cc1cc(C)nc(Nc2ccccc2)n1", "note": "[Mepanipyrim]", "values": [{"measurement": "pest or weed control at 20 ppm", "setting": "[3]; treatment concentration 20 ppm", "value": 0, "unit": "%"}, {"measurement": "pest or weed control at 20 ppm", "setting": "[4]; treatment concentration 20 ppm", "value": 75, "unit": "%"}]}, {"compound": "Cc1ccc(C(=O)NC[C@@H](NC(=O)OC(C)C)C(C)C)cc1", "note": "[Compound 2001, Isopropyl ((1S)-2-methyl-1-{[(4-methylbenzoyl)amino]methyl}propyl)-carbamate]", "values": [{"measurement": "pest or weed control at 5 ppm", "setting": "[1]", "value": 33, "unit": "%"}]}]}
